{"source": "patent US7666882B2", "about": "“Anthranilamide insecticides” (E.I. du Pont de Nemours and Company, priority 2002, dated 2010)", "test_system": "potato leafhopper (Empoasca fabae Harris)", "test": "Test D: control of potato leafhopper through contact and/or systemic means on Longio bean plant", "format": "in vivo", "conditions": "sprayed at 250 ppm, adults post-infested, 6 days, 19-21° C.", "method": "Test compounds were formulated using a solution containing 10% acetone, 90% water and 300 ppm X-77® Spreader Lo-Foam Formula non-ionic surfactant containing alkylarylpolyoxyethylene, free fatty acids, glycols and isopropanol (Loveland Industries, Inc.). The formulated compounds were applied in 1 mL of liquid through a SUJ2 atomizer nozzle with ⅛ JJ custom body (Spraying Systems Co.) positioned 1.27 cm (0.5 inches) above the top of each test unit. All experimental compounds in this screen were sprayed at 250 ppm, replicated three times. After spraying of the formulated test compound, each test unit was allowed to dry for 1 hour and then a black, screened cap was placed on top. The test units were held for 6 days in a growth chamber at 19-21° C. and 50-70% relative humidity. Each test unit was then visually assessed for insect mortality.\nFor evaluating control of potato leafhopper (Empoasca fabae Harris) through contact and/or systemic means, the test unit consisted of a small open container with a 5-6 day old Longio bean plant (primary leaves emerged) inside. White sand was added to the top of the soil and one of the primary leaves was excised prior to application. Test compounds were formulated and sprayed at 250 ppm and replicated three times as described for Test C. […] Each test unit was then visually assessed for insect mortality."}
{"smiles": "CNC(=O)c1cc(Cl)cc(Cl)c1NC(=O)c1cc(OCC#N)nn1-c1ncccc1Cl", "note": "[Compound 11]", "values": [{"measurement": "insect mortality", "result": "at least 80%"}]}
